In patent publication US20260062412A1, “NITROGEN-CONTAINING HETEROCYCLIC COMPOUND HAVING MYT1 INHIBITORY ACTIVITY” (CHUGAI SEIYAKU KABUSHIKI KAISHA, priority 2023, published 2026):
pIC50: −log10 of the molar value.

Target: MYT1 protein (Homo sapiens (Human), UniProt Q99640)
Test: Test for binding to ATP binding site of MYT1 (Kinase Tracer 178 / Eu-Anti-GST antibody TR-FRET)
Details: ATP binding site of MYT1, 30 minutes at room temperature
Procedure: The binding capacity of each compound to the ATP binding site of MYT1 Kinase protein was evaluated. 5× Kinase Buffer A (manufactured by Thermo Fisher Scientific Inc., PV3189) was diluted to 5 times with Milli-Q water, thereby preparing 1× Kinase Buffer. Using 1× Kinase Buffer, MYT1 protein (manufactured by Carna Biosciences, Inc.) was diluted to a concentration of 0.005 μM and Eu-Anti-GST Antibody was diluted to a concentration of 1 μM. […] To a 96 well-plate, 2.5 μL of a compound diluted with DMSO was added. […] The mixture was well mixed and then allowed to stand at room temperature for 30 minutes. Thereafter, fluorescence wavelengths of 665 nm and 615 nm generated by irradiation with excitation light of 340 nm were detected using Envision (manufactured by PerkinElmer). The proportion of Tracer bound to MYT1 protein was calculated for every condition by dividing the intensity at the fluorescence wavelength of 665 nm by the intensity at the fluorescence wavelength of 615 nm.

Chain of MYT1 protein (Q99640 whole entry): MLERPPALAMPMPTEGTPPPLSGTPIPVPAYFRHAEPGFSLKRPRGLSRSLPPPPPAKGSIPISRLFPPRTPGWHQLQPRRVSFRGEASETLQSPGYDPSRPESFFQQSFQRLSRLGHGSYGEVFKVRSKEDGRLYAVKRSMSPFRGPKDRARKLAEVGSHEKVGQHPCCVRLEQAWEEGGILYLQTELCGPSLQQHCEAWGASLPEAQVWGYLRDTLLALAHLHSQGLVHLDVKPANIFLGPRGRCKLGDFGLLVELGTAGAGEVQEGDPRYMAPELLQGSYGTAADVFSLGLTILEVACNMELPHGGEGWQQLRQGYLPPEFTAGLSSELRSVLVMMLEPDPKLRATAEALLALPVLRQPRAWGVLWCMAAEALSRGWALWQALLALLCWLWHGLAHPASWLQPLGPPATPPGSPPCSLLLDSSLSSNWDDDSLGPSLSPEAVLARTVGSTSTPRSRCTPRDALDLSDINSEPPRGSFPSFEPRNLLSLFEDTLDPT

Row | Compound | pIC50
1 | Cc1cc2c(-c3ccc(F)c4[nH]ncc34)c(N)c(=O)[nH]c2c2cc(Cl)ccc12 [Compound B12, 3-Amino-9-chloro-4-(7-fluoro-1H-indazol-4-yl)-6-methyl-1H-benzo[h]quinolin-2-one] | 7.70
2 | Nc1c(-c2ccc(F)c3[nH]ncc23)c2cc(I)c3cc(Cl)ccc3c2[nH]c1=O [Compound B13, 3-Amino-8-chloro-4-(7-fluoro-1H-indazol-4-yl)-6-iodo-1H-benzo[h]quinolin-2-one] | 7.07
3 | Nc1c(-c2ccc(F)c3[nH]ncc23)c2cc(C3CC3)c3cc(Cl)ccc3c2[nH]c1=O [Compound B14, 3-Amino-8-chloro-6-cyclopropyl-4-(7-fluoro-1H-indazol-4-yl)-1H-benzo[h]quinolin-2-one] | 7.74
4 | Cc1cc2c(-c3ccc(F)c4[nH]ncc34)c(N)c(=O)[nH]c2c2ccc(Cl)cc12 [Compound B15, 3-Amino-8-chloro-4-(7-fluoro-1H-indazol-4-yl)-6-methyl-1H-benzo[h]quinolin-2-one] | 8.07
5 | Nc1c(-c2ccc(F)c3[nH]ncc23)c2cc(Br)c3c(Cl)cccc3c2[nH]c1=O [Compound B16, 3-Amino-6-bromo-7-chloro-4-(7-fluoro-1H-indazol-4-yl)-1H-benzo[h]quinolin-2-one] | 7.34
6 | Nc1c(-c2ccc(F)c3[nH]ncc23)c2cc(C3CC3)c3c(Cl)cccc3c2[nH]c1=O [Compound B17, 3-Amino-7-chloro-6-cyclopropyl-4-(7-fluoro-1H-indazol-4-yl)-1H-benzo[h]quinolin-2-one] | 7.82
7 | Nc1c(-c2ccc(F)c3[nH]ncc23)c2ccc3c(Cl)cccc3c2[nH]c1=O [Compound B18, 3-Amino-7-chloro-4-(7-fluoro-1H-indazol-4-yl)-1H-benzo[h]quinolin-2-one] | 7.64
8 | Cc1cc2c(-c3ccc(F)c4[nH]ncc34)c(N)c(=O)[nH]c2c2cccc(Cl)c12 [Compound B19, 3-Amino-7-chloro-4-(7-fluoro-1H-indazol-4-yl)-6-methyl-1H-benzo[h]quinolin-2-one] | 7.66
9 | Nc1c(-c2ccc(F)c3[nH]ncc23)c2cc(C3CC3)c3cccc(Cl)c3c2[nH]c1=O [Compound B20, 3-Amino-10-chloro-6-cyclopropyl-4-(7-fluoro-1H-indazol-4-yl)-1H-benzo[h]quinolin-2-one] | 7.38
10 | Nc1c(-c2ccc(F)c3[nH]ncc23)c2cc(Br)c3ccccc3c2[nH]c1=O [Compound B21, 3-Amino-6-bromo-4-(7-fluoro-1H-indazol-4-yl)-1H-benzo[h]quinolin-2-one] | 7.70
11 | Nc1c(-c2ccc(F)c3[nH]ncc23)c2cc(C3CCCC3)c3ccccc3c2[nH]c1=O [Compound B25, 3-Amino-6-cyclopentyl-4-(7-fluoro-1H-indazol-4-yl)-1H-benzo[h]quinolin-2-one] | 7.62
12 | CC#Cc1cc2c(-c3ccc(F)c4[nH]ncc34)c(N)c(=O)[nH]c2c2ccccc12 [Compound B28, 3-Amino-4-(7-fluoro-1H-indazol-4-yl)-6-prop-1-inyl-1H-benzo[h]quinolin-2-one] | 7.66
13 | Cn1cc(-c2cc3c(-c4ccc(F)c5[nH]ncc45)c(N)c(=O)[nH]c3c3ccccc23)cn1 [Compound B29, 3-Amino-4-(7-fluoro-1H-indazol-4-yl)-6-(1-methylpyrazole-4-yl)-1H-benzo[h]quinolin-2-one] | 8.04
14 | C=Cc1cc2c(-c3ccc(F)c4[nH]ncc34)c(N)c(=O)[nH]c2c2ccccc12 [Compound B30, 3-Amino-6-ethenyl-4-(7-fluoro-1H-indazol-4-yl)-1H-benzo[h]quinolin-2-one] | 7.82
15 | Cn1c(=O)c(N)c(-c2ccc(F)c3[nH]ncc23)c2cc(Br)c3ccccc3c21 [Compound B33, 3-Amino-6-bromo-4-(7-fluoro-1H-indazol-4-yl)-1-methylbenzo[h]quinolin-2-one] | 5.59
16 | Nc1c(-c2ccc(Cl)c3[nH]ncc23)c2cc(Br)c3ccccc3c2[nH]c1=O [Compound B36, 3-Amino-6-bromo-4-(7-chloro-1H-indazol-4-yl)-1H-benzo[h]quinolin-2-one] | 7.85
17 | CCc1cc2c(-c3ccc(Cl)c4[nH]ncc34)c(N)c(=O)[nH]c2c2ccccc12 [Compound B38, 3-Amino-4-(7-chloro-1H-indazol-4-yl)-6-ethyl-1H-benzo[h]quinolin-2-one] | 8.34
18 | Nc1c(-c2ccc(Cl)c3[nH]ncc23)c2cc(C3CCC3)c3ccccc3c2[nH]c1=O [Compound B39, 3-Amino-4-(7-chloro-1H-indazol-4-yl)-6-cyclobutyl-1H-benzo[h]quinolin-2-one] | 8.00
19 | Nc1c(-c2ccc(Cl)c3[nH]ncc23)c2cc(C3CCCC3)c3ccccc3c2[nH]c1=O [Compound B40, 3-Amino-4-(7-chloro-1H-indazol-4-yl)-6-cyclopentyl-1H-benzo[h]quinolin-2-one] | 7.89
20 | N#Cc1cc2c(-c3ccc(Cl)c4[nH]ncc34)c(N)c(=O)[nH]c2c2ccccc12 [Compound B41, 3-Amino-4-(7-chloro-1H-indazol-4-yl)-2-oxo-1H-benzo[h]quinoline-6-carbonitrile] | 7.85
21 | N#Cc1cc2c(-c3ccc(C#N)c4[nH]ncc34)c(N)c(=O)[nH]c2c2ccccc12 [Compound B42, 3-Amino-4-(7-cyano-1H-indazol-4-yl)-2-oxo-1H-benzo[h]quinoline-6-carbonitrile] | 6.60
22 | Cc1cc2c(-c3ccc(Cl)c4[nH]ncc34)c(N)c(=O)[nH]c2c2ccccc12 [Compound B43, 3-Amino-4-(7-chloro-1H-indazol-4-yl)-6-methyl-1H-benzo[h]quinolin-2-one] | 7.82
23 | Nc1c(-c2ccc(Cl)c3[nH]ncc23)c2ccc3ccccc3c2[nH]c1=O [Compound B44, 3-Amino-4-(7-chloro-1H-indazol-4-yl)-1H-benzo[h]quinolin-2-one] | 7.85
24 | Nc1c(-c2ccc(Cl)c3[nH]ncc23)c2cc(Cl)c3ccccc3c2[nH]c1=O [Compound B45, 3-Amino-6-chloro-4-(7-chloro-1H-indazol-4-yl)-1H-benzo[h]quinolin-2-one] | 7.48
25 | CC(C)CCOc1cc2c(-c3ccc(F)c4[nH]ncc34)c(N)c(=O)[nH]c2c2cccnc12 [Compound C10, 3-Amino-4-(7-fluoro-1H-indazol-4-yl)-6-(3-methylbutoxy)-1H-1,7-phenanthrolin-2-one] | 8.64

The next lines start with the values.

Row | pIC50 | Compound
26 | 5.96 | Cn1ncc2c(-c3c(N)c(=O)[nH]c4c3cc(Br)c3ncccc34)ccc(F)c21 [Compound C2, 3-Amino-6-bromo-4-(7-fluoro-1-methylindazol-4-yl)-1H-1,7-phenanthrolin-2-one]
27 | 8.44 | Nc1c(-c2ccc(F)c3[nH]ncc23)c2cc(O)c3ncccc3c2[nH]c1=O [Compound C3, 3-Amino-4-(7-fluoro-1H-indazol-4-yl)-6-hydroxy-1H-1,7-phenanthrolin-2-one]
28 | 8.85 | Nc1c(-c2ccc(F)c3[nH]ncc23)c2cc(O[C@@H]3CCOC3)c3ncccc3c2[nH]c1=O [Compound C5, 3-Amino-4-(7-fluoro-1H-indazol-4-yl)-6-[(3R)-oxolan-3-yl]oxy-1H-1,7-phenanthrolin-2-one]
29 | 9.00 | Nc1c(-c2ccc(F)c3[nH]ncc23)c2cc(OC3CCCC3)c3ncccc3c2[nH]c1=O [Compound C6, 3-Amino-6-cyclopentyloxy-4-(7-fluoro-1H-indazol-4-yl)-1H-1,7-phenanthrolin-2-one]
30 | 8.92 | Nc1c(-c2ccc(F)c3[nH]ncc23)c2cc(OC3CCOCC3)c3ncccc3c2[nH]c1=O [Compound C7, 3-Amino-4-(7-fluoro-1H-indazol-4-yl)-6-(oxan-4-yloxy)-1H-1,7-phenanthrolin-2-one]
31 | 8.49 | Nc1c(-c2ccc(F)c3[nH]ncc23)c2cc(OCC3CCC3)c3ncccc3c2[nH]c1=O [Compound C9, 3-Amino-6-(cyclobutylmethoxy)-4-(7-fluoro-1H-indazol-4-yl)-1H-1,7-phenanthrolin-2-one]
32 | 8.85 | Nc1c(-c2ccc(F)c3[nH]ncc23)c2cc(OCC3CC3)c3ncccc3c2[nH]c1=O [Compound C11, 3-Amino-6-(cyclopropylmethoxy)-4-(7-fluoro-1H-indazol-4-yl)-1H-1,7-phenanthrolin-2-one]
33 | 8.66 | Nc1c(-c2ccc(F)c3[nH]ncc23)c2cc(O[C@H]3CCOC3)c3ncccc3c2[nH]c1=O [Compound C12, 3-Amino-4-(7-fluoro-1H-indazol-4-yl)-6-[(3S)-oxolan-3-yl]oxy-1H-1,7-phenanthrolin-2-one]
34 | 8.60 | COCCOc1cc2c(-c3ccc(F)c4[nH]ncc34)c(N)c(=O)[nH]c2c2cccnc12 [Compound C14, 3-Amino-4-(7-fluoro-1H-indazol-4-yl)-6-(2-methoxyethoxy)-1H-1,7-phenanthrolin-2-one]
35 | 8.59 | Nc1c(-c2ccc(F)c3[nH]ncc23)c2cc(OCC(F)(F)F)c3ncccc3c2[nH]c1=O [Compound C15, 3-Amino-4-(7-fluoro-1H-indazol-4-yl)-6-(2,2,2-trifluoroethoxy)-1H-1,7-phenanthrolin-2-one]
36 | 8.96 | Nc1c(-c2ccc(F)c3[nH]ncc23)c2cc(OCC(F)F)c3ncccc3c2[nH]c1=O [Compound C16, 3-Amino-6-(2,2-difluoroethoxy)-4-(7-fluoro-1H-indazol-4-yl)-1H-1,7-phenanthrolin-2-one]
37 | 8.35 | Nc1c(-c2ccc(F)c3[nH]ncc23)c2cc(OC3CCCCC3)c3ncccc3c2[nH]c1=O [Compound C17, 3-Amino-6-cyclohexyloxy-4-(7-fluoro-1H-indazol-4-yl)-1H-1,7-phenanthrolin-2-one]
